Results on 74 compounds are retold here after ChEMBL document CHEMBL1142723, “Discovery of a potent, selective, and efficacious class of reversible alpha-ketoheterocycle inhibitors of fatty acid amide hydrolase effective as analgesics” (J Med Chem, 2005).

The structures appear in SMILES notation.

Molecular target in the first test: not listed separately
The test can be described thus: Inhibitory concentration against KIAA1363 hydrolase.
As usually defined, the IC50 is the point on the concentration scale where inhibition reaches its midpoint. High values mean lower potency, low ones higher potency. Regarding `O=C(CCCCCc1ccccc1)c1nc2ncccc2o1`, half-maximal inhibition (IC50) was put at 10000 nM.

`O=C(CCCCCCc1ccccc1)c1ncc(-c2ccccn2)o1` had an IC50 of more than 100000 nM.

Compound `CCCCCCCC/C=C\CCCCCCCC(=O)c1nc2ccccc2o1` had an IC50 of more than 100000 nM.

For `CCCCCCCC/C=C\CCCCCCCC(=O)c1nc2ncccc2o1`, the IC50 stood at 60000 nM.

`O=C(CCCCCc1ccccc1)c1nc2ccccc2o1` had an IC50 of more than 100000 nM.

The compound `O=C(CCCCCCc1ccccc1)c1nc2ncccc2o1` yielded an IC50 of 20000 nM.

Regarding `O=C(CCCCCc1ccccc1)C(F)(F)F`, the IC50 was 800 nM.

In turn, `CCCCCCCCCCCCCCCCCC(=O)C(F)(F)F` yielded an IC50 of 6600 nM.

The compound `CCCCCCCCCC(=O)C(F)(F)F` registered an IC50 of 400 nM.

`O=C(CCCCCCc1ccccc1)C(F)(F)F` showed an IC50 of 200 nM.

`O=C(CCCCCCCc1ccccc1)C(F)(F)F` displayed an IC50 of 200 nM.

Turning to `CCCCCCCC(=O)C(F)(F)F`, the IC50 was 1500 nM.

In another test the target is T1, Fatty-acid amide hydrolase 1 (Rattus norvegicus, UniProt P97612).
T1 sequence (P97612 whole entry): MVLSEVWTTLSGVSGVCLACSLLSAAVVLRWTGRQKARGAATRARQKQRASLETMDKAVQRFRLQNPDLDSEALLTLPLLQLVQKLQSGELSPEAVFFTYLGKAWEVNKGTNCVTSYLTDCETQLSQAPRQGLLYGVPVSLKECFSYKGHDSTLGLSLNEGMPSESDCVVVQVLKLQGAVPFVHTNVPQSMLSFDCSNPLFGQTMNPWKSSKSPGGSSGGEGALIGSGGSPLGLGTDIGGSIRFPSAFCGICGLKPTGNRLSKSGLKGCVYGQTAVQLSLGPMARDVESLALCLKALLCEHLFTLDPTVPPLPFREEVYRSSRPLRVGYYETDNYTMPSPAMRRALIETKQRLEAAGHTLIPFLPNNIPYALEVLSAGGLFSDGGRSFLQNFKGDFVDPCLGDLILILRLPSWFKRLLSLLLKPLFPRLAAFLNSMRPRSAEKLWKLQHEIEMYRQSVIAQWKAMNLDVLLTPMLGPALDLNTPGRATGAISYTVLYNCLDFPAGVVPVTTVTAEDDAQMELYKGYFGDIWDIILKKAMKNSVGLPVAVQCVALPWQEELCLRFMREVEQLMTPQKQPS
The test can be described thus: Inhibitory constant determined against recombinant Fatty-acid amide hydrolase from rat expressed in Escherichia coli.
Usually Ki stands for a measure of affinity in units of concentration, obtained from inhibition or displacement. For the compound `CCCCCCCC/C=C\CCCCCCCC(=O)c1nc(C)c(C)o1`, the Ki worked out at 3800 nM.

Turning to `CCCCCCCC/C=C\CCCCCCCC(=O)c1nc(-c2ncccn2)co1`, the Ki is 16 nM.

`CCCCCCCC/C=C\CCCCCCCC(=O)c1ncc(-c2ccoc2)o1`: the inhibitory constant (Ki) is 610 nM.

For the compound `CCCCCCCCCCCCCCCCCC(=O)c1ncc(-c2ccccn2)o1`, the Ki came out at 59 nM.

As for `CCCCCCCC/C=C\CCCCCCCC(=O)c1ncc(-c2cccnn2)o1`, the Ki stood at 14 nM.

For the compound `CCCCC(=O)c1ncc(-c2ccccn2)o1`, the Ki was 3000 nM.

As to `CCCCCCCC(=O)c1ncc(-c2ccccn2)o1`, the Ki turned out to be 49 nM.

With `O=C(CCCCCCCCCCc1ccccc1)c1ncc(-c2ccccn2)o1`, the Ki came out at 22 nM.

Take `C#CCCCCC(=O)c1ncc(-c2ccccn2)o1`: the Ki is 1300 nM.

Take `CCCCCCCCCCCCCCCC(=O)c1ncc(-c2ccccn2)o1`: the Ki came out at 21 nM.

On to `CCCCCCCCCCCCCC(=O)c1ncc(-c2ccccn2)o1`, for which the Ki came to 13 nM.

Turning to `O=C(CCCCCCc1ccccc1)c1ncc(-c2cncnc2)o1`, the Ki is 22 nM.

For `CCCCCCCC/C=C\CCCCCCCC(=O)c1ncc(-c2ncco2)o1`, the Ki stood at 12 nM.

For the compound `O=C(CCCCCc1ccccc1)c1nc2ncccc2o1`, the Ki worked out at 0.2 nM.

Consider `CCCCCCCCCC(=O)c1ncc(-c2ccccn2)o1`, for which the Ki was 9 nM.

Take `CCCCCCCC/C=C\CCCCCCCC(=O)c1nc(-c2cccnc2)co1`: the inhibition constant Ki is 41 nM.

On to `O=C(CCCCCCc1ccccc1)c1ncc(-c2ncco2)o1`, for which the Ki amounted to 4.6 nM.

For the compound `CCCCCCCC/C=C\CCCCCCCC(=O)c1ncc(-c2nccn2C)o1`, the Ki was determined as 47 nM.

Take `O=C(CCCCCCCCCc1ccccc1)c1ncc(-c2ccccn2)o1`: the Ki stood at 10 nM.

`CCCCCCCC/C=C\CCCCCCCCc1ncc(-c2ccccn2)o1`: the inhibitory constant (Ki) is 23200 nM.

For `C#CCCCCCCCC(=O)c1ncc(-c2ccccn2)o1`, the Ki was 23 nM.

Turning to `CCCCCCCC/C=C\CCCCCCCC(=O)c1ncc(-c2ccncc2)o1`, the Ki is 56 nM.

As for `O=C(CCCCCCCCc1ccccc1)c1ncc(-c2ccccn2)o1`, the Ki amounted to 7.8 nM.

`CCCCCCCC/C=C\CCCCCCCC(=O)c1nc(-c2ccncn2)co1`: the Ki came out at 16 nM.

For the compound `O=C(CCCC#Cc1ccccc1)c1ncc(-c2ccccn2)o1`, the Ki worked out at 21 nM.

Consider `CCCCCCCC/C=C\CCCCCCCC(=O)c1nc(-c2ccccc2)c(-c2ccccc2)o1`, for which the Ki was more than 100000 nM.

Regarding `CC(=O)c1ncc(-c2ccccn2)o1`, the Ki was more than 100000 nM.

In the case of `CCCCCCCC/C=C\CCCCCCCC(=O)c1nc(-c2ccccc2)co1`, the Ki amounted to 490 nM.

Take `C[Si](C)(C)C#CCCCCC(=O)c1ncc(-c2ccccn2)o1`: the Ki was 200 nM.

Take `CCCCCCCC/C=C\CCCCCCCC(=O)c1nc(-c2ccncc2)co1`: the Ki was found to be 78 nM.

For the compound `OC(CCCCCCc1ccccc1)c1ncc(-c2ccccn2)o1` (stereo not drawn), the Ki came out at 3300 nM.

As to `CCCCCCCC/C=C\CCCCCCCC(O)c1ncc(-c2ccccn2)o1` (stereo not drawn), the Ki came out at 10600 nM.

`OC(CCCCCCc1ccccc1)c1ncc(-c2ncccn2)o1` (stereo not drawn): the Ki worked out at 5900 nM.

Turning to `CCC(=O)c1ncc(-c2ccccn2)o1`, the Ki was found to be 48000 nM.

As for `CCCCCCCC/C=C\CCCCCCCC(=O)c1ncc(-c2nccs2)o1`, the Ki was 16 nM.

As to `OC(CCCCCCc1ccccc1)c1ncc(-c2cccnn2)o1` (stereo not drawn), the Ki was 4300 nM.

Regarding `O=C(CCCCCCCc1ccccc1)c1ncc(-c2ccccn2)o1`, the Ki was determined as 7.5 nM.

For `CCCCCCCC/C=C\CCCCCCCC(=O)c1ncc(-c2cccn2C)o1`, the Ki turned out to be 8600 nM.

With `O=C(CCc1ccccc1)c1ncc(-c2ccccn2)o1`, the inhibition constant (Ki) was found to be 200 nM.

As to `O=C(CCCCCCc1ccccc1)c1ncc(-c2nccs2)o1`, the Ki came out at 5.8 nM.

As for `CCCCCCCCCCCC(=O)c1ncc(-c2ccccn2)o1`, the Ki is 2.2 nM.

Regarding `CCCCCCCCC(=O)c1ncc(-c2ccccn2)o1`, the Ki was 15 nM.

For the compound `O=C(CCCCCCc1ccccc1)c1ncc(-c2cnccn2)o1`, the Ki is 5.3 nM.

Turning to `O=C(CCCCCCc1ccccc1)c1ncc(-c2ccncn2)o1`, the Ki worked out at 2.3 nM.

As to `CCCCCCCC/C=C\CCCCCCCC(=O)c1ncc(-c2ccsc2)o1`, the Ki was determined as 13200 nM.

For `CCCCCCC(=O)c1ncc(-c2ccccn2)o1`, the Ki is 170 nM.

Turning to `CCCCCC(=O)c1ncc(-c2ccccn2)o1`, the Ki is 940 nM.

As for `CCCCCCCC/C=C\CCCCCCCC(=O)c1ncc(-c2cccs2)o1`, the Ki was 890 nM.

For the compound `CCCCCCCC/C=C\CCCCCCCC(=O)c1nc2ccccc2o1`, the Ki stood at 370 nM.

As to `CCCCCCCC/C=C\CCCCCCCC(=O)c1nc2ncccc2o1`, the Ki was determined as 2.3 nM.

For `O=C(Cc1ccccc1)c1ncc(-c2ccccn2)o1`, the Ki turned out to be 17000 nM.

`CCCCCCCC/C=C\CCCCCCCC(=O)c1ncc(-c2cnccn2)o1`: the Ki is 18 nM.

In the case of `CCCCCCCC/C=C\CCCCCCCC(=O)c1nc(-c2ccccn2)co1`, the Ki is 31 nM.

For `O=C(CCCCCc1ccccc1)c1ncc(-c2ccccn2)o1`, the Ki is 11 nM.

On to `CCCCCCCCCCC(=O)c1ncc(-c2ccccn2)o1`, for which the Ki was 3.3 nM.

On to `O=C(CCCCCCc1ccccc1)c1ncc(-c2cccnn2)o1`, for which the Ki amounted to 5.6 nM.

Turning to `c1ccc(CCCCCCCc2ncc(-c3ccccn3)o2)cc1`, the Ki came out at 20000 nM.

Take `O=C(CCCCC#Cc1ccccc1)c1ncc(-c2ccccn2)o1`: the Ki amounted to 20 nM.

For the compound `O=C(CCCCCCc1ccccc1)c1nc2ncccc2o1`, the Ki stood at 0.28 nM.

As for `O=C(CCCCc1ccccc1)c1ncc(-c2ccccn2)o1`, the Ki amounted to 33 nM.

Consider `O=C(CCCCCCc1ccccc1)c1ncc(-c2ncccn2)o1`, for which the Ki was 4.6 nM.

With `CCCC(=O)c1ncc(-c2ccccn2)o1`, the Ki is 11000 nM.

Turning to `CCCCCCCC/C=C\CCCCCCCC(=O)c1ncc(-c2cccnc2)o1`, the Ki was 61 nM.

As to `O=C(CCCc1ccccc1)c1ncc(-c2ccccn2)o1`, the Ki was 120 nM.

Regarding `C=CCCCCCCCC(=O)c1ncc(-c2ccccn2)o1`, the Ki stood at 11 nM.

Consider `CCCCCCCC/C=C\CCCCCCCC(=O)c1ncc(-c2ccccc2)o1`, for which the Ki worked out at 320 nM.
